# According to ChEMBL document CHEMBL1145890, “Synthesis, characterization, and in vitro antitumor activity of osteotropic diam(m)ineplatinum(II) complexes bearing a N,N-bis(phosphonomethyl)glycine ligand” (J Med Chem, 2003):
# Tested on: CH1
# Test: Antiproliferative activity in human ovarian cancer cell line (CH1) using MTT assay
# Assay type: functional, cell-based
row,Sequence,IC50 [µM]
1,CARBOPLATIN,2.5
2,OXALIPLATIN,0.27
